How the values were obtained:
S. aureus DSM 20231 [1] = test: fitness (endpoint OD595 vs no drug) (fraction); higher = more growth
Procedure, shortened: (§1)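 Growth medium was TSB, LB Lennox or CY, and plates were kept at 37 °C. Inoculation was at OD595 0.01 in 384-well plates, at 30 µl per well or 55 µl for S. pneumoniae. OD595 was monitored every 30 min for 14 h and background-subtracted using the first reading. Fitness is the optical density on entering stationary phase divided by the robust mean of no-drug controls, with values capped at 1.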

S. aureus Newman = test: Bliss interaction score (quartile over a dose matrix) (fitness difference); higher = more antagonism (negative = synergy)
Procedure, shortened: (§2)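 Fitness is OD595 at stationary-phase entry relative to the plate's robust no-drug mean, capped at 1. Single-drug fitness was inferred from combinations. The Bliss score is observed minus product-expected fitness, summarised by quartiles over technical, biological and donor/recipient replicates.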

S. aureus DSM 20231 [2] = test: as above
Procedure, shortened: as §2

S. pneumoniae D39V [3] = test: as above
Procedure, shortened: as §2

B. subtilis 168 [4] = test: as above
Procedure, shortened: as §2

S. pneumoniae D39V [5] = test: fitness (endpoint OD595 vs no drug) (fraction); higher = more growth
Procedure, shortened: as §1

B. subtilis 168 [6] = test: as above
Procedure, shortened: as §1
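Throughout, for Bliss interaction score (quartile over a dose matrix): first quartile when negative (synergy) and third quartile when positive (antagonism).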

CO/N=C(\C(=O)N[C@@H]1C(=O)N2C(C(=O)[O-])=C(C[N+]3(C)CCCC3)CS[C@H]12)c1csc(N)n1 [Cefepime] + COc1cc(Cc2cnc(N)nc2N)cc(OC)c1OC [Trimethoprim]
fitness, S. aureus DSM 20231 [1]
Details | partner 0.125 µg/mL | partner 0.25 µg/mL | partner 0.5 µg/mL | partner 1 µg/mL
first compound 0.125 µg/mL | 0.629 | 0.556 | 0.272 | 0.0708
first compound 0.25 µg/mL | 0.631 | 0.573 | – | 0.0608
first compound 0.5 µg/mL | 0.679 | 0.612 | – | 0.0509

Details | Bliss interaction score
B. subtilis 168 [4] | 0.0732
S. aureus DSM 20231 [2] | 0.0714
S. aureus Newman | 0.0778
S. pneumoniae D39V [3] | 0.255

CO/N=C(\C(=O)N[C@@H]1C(=O)N2C(C(=O)[O-])=C(C[N+]3(C)CCCC3)CS[C@H]12)c1csc(N)n1 [Cefepime] + CCC[C@@H]1C[C@@H](C(=O)N[C@@H]([C@H]2O[C@H](SC)[C@H](O)[C@@H](O)[C@H]2O)[C@@H](C)O)N(C)C1 [Lincomycin]
Details | fitness
S. aureus DSM 20231 [1], first compound 0.125 µg/mL, partner 0.1 µg/mL | 0.877
S. aureus DSM 20231 [1], first compound 0.125 µg/mL, partner 0.2 µg/mL | 0.876
S. aureus DSM 20231 [1], first compound 0.25 µg/mL, partner 0.1 µg/mL | 0.939
S. aureus DSM 20231 [1], first compound 0.25 µg/mL, partner 0.2 µg/mL | 0.908
S. aureus DSM 20231 [1], first compound 0.5 µg/mL, partner 0.1 µg/mL | 0.906
S. aureus DSM 20231 [1], first compound 0.5 µg/mL, partner 0.2 µg/mL | 0.835
S. pneumoniae D39V [5], first compound 0.007 µg/mL, partner 0.2 µg/mL | 0.734
S. pneumoniae D39V [5], first compound 0.007 µg/mL, partner 0.4 µg/mL | 0.521
S. pneumoniae D39V [5], first compound 0.007 µg/mL, partner 0.8 µg/mL | 0.198
S. pneumoniae D39V [5], first compound 0.0078 µg/mL, partner 0.215 µg/mL | 0.909
S. pneumoniae D39V [5], first compound 0.0078 µg/mL, partner 0.43 µg/mL | 0.823
S. pneumoniae D39V [5], first compound 0.0078 µg/mL, partner 0.86 µg/mL | 0.593
S. pneumoniae D39V [5], first compound 0.014 µg/mL, partner 0.2 µg/mL | 0.729
S. pneumoniae D39V [5], first compound 0.014 µg/mL, partner 0.4 µg/mL | 0.523
S. pneumoniae D39V [5], first compound 0.014 µg/mL, partner 0.8 µg/mL | 0.185
S. pneumoniae D39V [5], first compound 0.0155 µg/mL, partner 0.215 µg/mL | 0.878
S. pneumoniae D39V [5], first compound 0.0155 µg/mL, partner 0.43 µg/mL | 0.821
S. pneumoniae D39V [5], first compound 0.0155 µg/mL, partner 0.86 µg/mL | 0.514
S. pneumoniae D39V [5], first compound 0.028 µg/mL, partner 0.2 µg/mL | 0.674
S. pneumoniae D39V [5], first compound 0.028 µg/mL, partner 0.4 µg/mL | 0.458
S. pneumoniae D39V [5], first compound 0.028 µg/mL, partner 0.8 µg/mL | 0.133
S. pneumoniae D39V [5], first compound 0.031 µg/mL, partner 0.215 µg/mL | 0.82
S. pneumoniae D39V [5], first compound 0.031 µg/mL, partner 0.43 µg/mL | 0.723
S. pneumoniae D39V [5], first compound 0.031 µg/mL, partner 0.86 µg/mL | 0.323

Details | Bliss interaction score
B. subtilis 168 [4] | -0.0344
S. aureus DSM 20231 [2] | 0.188
S. aureus Newman | 0.0822
S. pneumoniae D39V [3] | 0.2

C[C@H]1COc2c(N3CCN(C)CC3)c(F)cc3c(=O)c(C(=O)O)cn1c23 [Levofloxacin] + COc1c(N2C[C@@H]3CCCN[C@@H]3C2)c(F)cc2c(=O)c(C(=O)O)cn(C3CC3)c12 [Moxifloxacin]
Details | fitness
B. subtilis 168 [6], first compound 0.002 µg/mL, partner 0.0312 µg/mL | 0.0439
B. subtilis 168 [6], first compound 0.002 µg/mL, partner 0.0625 µg/mL | 0.0254
B. subtilis 168 [6], first compound 0.002 µg/mL, partner 0.125 µg/mL | 0.0489
B. subtilis 168 [6], first compound 0.0039 µg/mL, partner 0.0312 µg/mL | 0.0651
B. subtilis 168 [6], first compound 0.0039 µg/mL, partner 0.0625 µg/mL | 0.0551
B. subtilis 168 [6], first compound 0.0039 µg/mL, partner 0.125 µg/mL | 0.0554
B. subtilis 168 [6], first compound 0.0078 µg/mL, partner 0.0312 µg/mL | 0.0472
B. subtilis 168 [6], first compound 0.0078 µg/mL, partner 0.0625 µg/mL | 0.0515
B. subtilis 168 [6], first compound 0.0078 µg/mL, partner 0.125 µg/mL | 0.0578
B. subtilis 168 [6], first compound 0.0312 µg/mL, partner 2 µg/mL | 0.0397
B. subtilis 168 [6], first compound 0.0312 µg/mL, partner 4 µg/mL | 0.0257
B. subtilis 168 [6], first compound 0.0312 µg/mL, partner 8 µg/mL | 0.0215
B. subtilis 168 [6], first compound 0.0625 µg/mL, partner 2 µg/mL | 0.0387
B. subtilis 168 [6], first compound 0.0625 µg/mL, partner 4 µg/mL | 0.0417
B. subtilis 168 [6], first compound 0.0625 µg/mL, partner 8 µg/mL | 0.0241
B. subtilis 168 [6], first compound 0.125 µg/mL, partner 2 µg/mL | 0.0455
B. subtilis 168 [6], first compound 0.125 µg/mL, partner 4 µg/mL | 0.0375
B. subtilis 168 [6], first compound 0.125 µg/mL, partner 8 µg/mL | 0.0205
S. pneumoniae D39V [5], first compound 0.1725 µg/mL, partner 0.0037 µg/mL | 0.882
S. pneumoniae D39V [5], first compound 0.1725 µg/mL, partner 0.0075 µg/mL | 0.848
S. pneumoniae D39V [5], first compound 0.1725 µg/mL, partner 0.015 µg/mL | 0.887
S. pneumoniae D39V [5], first compound 0.2 µg/mL, partner 0.005 µg/mL | 0.899
S. pneumoniae D39V [5], first compound 0.2 µg/mL, partner 0.01 µg/mL | 0.943
S. pneumoniae D39V [5], first compound 0.2 µg/mL, partner 0.02 µg/mL | 0.857
S. pneumoniae D39V [5], first compound 0.345 µg/mL, partner 0.0037 µg/mL | 0.723
S. pneumoniae D39V [5], first compound 0.345 µg/mL, partner 0.0075 µg/mL | 0.69
S. pneumoniae D39V [5], first compound 0.345 µg/mL, partner 0.015 µg/mL | 0.738
S. pneumoniae D39V [5], first compound 0.4 µg/mL, partner 0.005 µg/mL | 0.842
S. pneumoniae D39V [5], first compound 0.4 µg/mL, partner 0.01 µg/mL | 0.85
S. pneumoniae D39V [5], first compound 0.4 µg/mL, partner 0.02 µg/mL | 0.77
S. pneumoniae D39V [5], first compound 0.69 µg/mL, partner 0.0037 µg/mL | 0.418
S. pneumoniae D39V [5], first compound 0.69 µg/mL, partner 0.0075 µg/mL | 0.391
S. pneumoniae D39V [5], first compound 0.69 µg/mL, partner 0.015 µg/mL | 0.489

B. subtilis 168 [6], first compound 0.001 µg/mL, one replicate
Details | fitness
partner 0.0312 µg/mL | 0.575
partner 0.0625 µg/mL | 0.0212
partner 0.125 µg/mL | 0

Details | Bliss interaction score
B. subtilis 168 [4] | 0.0308
S. aureus DSM 20231 [2] | -0.0852
S. aureus Newman | -0.201
S. pneumoniae D39V [3] | -0.0874

CN(C)C(=O)C(CCN1CCC(O)(c2ccc(Cl)cc2)CC1)(c1ccccc1)c1ccccc1 [Loperamide] + Cc1cc(NS(=O)(=O)c2ccc(N)cc2)no1 [Sulfamethoxazol]
fitness
Details | partner 1 µg/mL | partner 2 µg/mL | partner 4 µg/mL
B. subtilis 168 [6], first compound 25 µg/mL | – | – | 0.857
B. subtilis 168 [6], first compound 100 µg/mL | – | 0.0238 | 0.156
S. pneumoniae D39V [5], first compound 17.14 µg/mL | 0.92 | 0.936 | 0.989
S. pneumoniae D39V [5], first compound 34.28 µg/mL | 0.953 | 0.95 | 0.998

fitness, one replicate
Details | first compound 20 µg/mL | first compound 25 µg/mL | first compound 40 µg/mL | first compound 50 µg/mL | first compound 68.57 µg/mL | first compound 80 µg/mL | first compound 100 µg/mL
B. subtilis 168 [6], partner 0.5 µg/mL | – | 0.0806 | – | 0.009 | – | – | 0.0009
S. pneumoniae D39V [5], partner 1 µg/mL | ≥ 1 | – | ≥ 1 | – | 0.967 | 0.249 | –
S. pneumoniae D39V [5], partner 2 µg/mL | ≥ 1 | – | ≥ 1 | – | 0.968 | 0.89 | –
S. pneumoniae D39V [5], partner 4 µg/mL | 0.941 | – | 0.942 | – | ≥ 1 | 0.752 | –

Details | Bliss interaction score
B. subtilis 168 [4] | -0.178
S. aureus DSM 20231 [2] | -0.143
S. aureus Newman | 0.0631
S. pneumoniae D39V [3] | 0.0594

CN(C)C(=O)C(CCN1CCC(O)(c2ccc(Cl)cc2)CC1)(c1ccccc1)c1ccccc1 [Loperamide] + C[n+]1ccc(-c2cc[n+](C)cc2)cc1 [Paraquat]
fitness
Details | partner 1.25 µg/mL | partner 1.5 µg/mL | partner 2.5 µg/mL | partner 3 µg/mL | partner 5 µg/mL | partner 6 µg/mL
B. subtilis 168 [6], first compound 25 µg/mL | 0.798 | – | 0.684 | – | 0.537 | –
B. subtilis 168 [6], first compound 50 µg/mL | 0.0367 | – | 0.0251 | – | 0.0432 | –
B. subtilis 168 [6], first compound 100 µg/mL | 0.0324 | – | 0.0267 | – | 0.0238 | –
S. pneumoniae D39V [5], first compound 17.14 µg/mL | – | 0.994 | – | 0.984 | – | 0.922
S. pneumoniae D39V [5], first compound 34.28 µg/mL | – | 0.972 | – | 0.973 | – | 0.883

fitness, S. pneumoniae D39V [5], one replicate
Details | first compound 20 µg/mL | first compound 40 µg/mL | first compound 68.57 µg/mL | first compound 80 µg/mL
partner 1.5 µg/mL | ≥ 1 | ≥ 1 | 0.934 | ≥ 1
partner 3 µg/mL | ≥ 1 | ≥ 1 | 0.931 | ≥ 1
partner 6 µg/mL | ≥ 1 | ≥ 1 | 0.853 | ≥ 1

Details | Bliss interaction score
B. subtilis 168 [4] | -0.103
S. aureus DSM 20231 [2] | 0.177
S. aureus Newman | 0.0662
S. pneumoniae D39V [3] | 0.0549

From the supplement of paper PMC10627819
